# Data as given in PMC12559223, “Structural basis of apoptosis induction by the mitochondrial voltage-dependent anion channel” (Nature Communications, 2025).
# Positions of bridges follow the written chain, without caps; N, C: chain ends. Non-standard residues stand in square brackets, D forms with d. Residues, ends and D or L forms follow the SMILES beside them. S5 = C=CCCC[C@](C)(N)C(=O)O
# Test system: Bak-BclxL complex
# Assay: Liposome permeabilization (pore-forming) assay, cBid-activated Bak inhibited by BclxL
# Type: biochemical, human
# Conditions: increasing concentrations of peptide (10-100 µM); 50 nM BakΔTM, 40 nM cBid, 50 nM BclxLΔTM
smiles,measurement,value
CC(C)C[C@H](NC(=O)[C@H](CC(=O)O)NC(=O)[C@H](C)NC(=O)[C@@H](N)Cc1ccc(O)cc1)C(=O)N[C@@]1(C)CCCC=CCCC[C@@](C)(C(=O)N[C@@H](CC(=O)O)C(=O)N[C@H](C(=O)N[C@@H](Cc2ccccc2)C(=O)N[C@H](C(=O)N[C@@H](CCCCN)C(=O)NCC(=O)O)[C@@H](C)O)C(C)C)NC(=O)[C@H](C)NC(=O)[C@H](CO)NC(=O)[C@H](CCCCN)NC1=O [stVDAC1-N] (H-YADL[S5]KSA[S5]DVFTKG-OH; staple 5-9; N-terminus and C-terminus assumed),effect on pore-forming activity of BclxL-inhibited Bak (in words),concentration-dependent rescue of the pore-forming activity of Bak
